From US20230097753A1, “ALPHA-HYDROXYLATED FATTY-ACID METABOLITES, MEDICAL USES AND USE AS BIOMARKERS” (UNIVERSITAT DE LES ILLES BALEARS, priority 2020, published 2023)

Experiment: Brain fatty acid levels in WT and 5xFAD mice after chronic oral treatment
Assay type: in vivo, mouse
Details: for Brain levels after treatment with DHA-H sodium salt: oral 5-200 mg/kg, 4 months
Method: FIG. 2. […] Brain levels of HPA (Al) or DHA (A2) (nmoles/mg of protein) are represented in the ordinate axis, with respect to treatment doses with the sodium salt of DHA-H (A1) and the sodium salt of DHA (A1 and A2) (mg/kg). A1: • animals WT; ∘ 5xFAD. A2: Black bars refer to WT animals and white bars to 5xFAD. The levels of HPA and DHA were determined in the brain of WT and 5xFAD mice after chronic administration of DHA-H sodium salt (4 months; 5 doses/week M-F; between 3 and 7 months of age; sacrifice at 7 months). HPA accumulates in the brain of both mouse strains similarly, depending on the dose of DHA-H sodium salt administered (A1: • r2=0.9292, p=0.0002; ∘ r2=0.9704, p<0.0001). […] Data are shown as mean±standard error, and statistical analysis was done by one-way ANOVA and Tukey multiple evaluation test: *p<0.05 compared to control (mice treated with vehicle). Therefore, when the prodrug DHA-H, in particular its sodium salt, is administered in healthy mice and transgenic models of Alzheimer's disease, a significant accumulation of HPA occurs at the brain level, without the presence of the prodrug (DHA-H) being detected, nor changes in endogenous levels of DHA. […] The number of total errors (B1), reference memory errors (RME) (B2) or working memory errors (WME) (B3), committed, are represented in the ordinate axis against the brain levels of HPA (nmol/mg of protein) in the abscissa axis. The cognitive assessment was done by testing the 8-arm radial labyrinth during the last month of treatment of the same animals shown in FIG. 2A. Individual experimental points from the entire study animal population were plotted and the data from the 5xFAD animals were adjusted to an inverse polynomial regression f(x)=y0+(a/x). The values of r^2 and p corresponding to the regression of each parameter are shown below: total errors, RME and WME versus the brain concentration of HPA: C1: r^2=0.9146 and p=0.0311; C2: r^2=0.9252 and p=0.0243; C3: r^2=0.7785 and p=0.0346. […]

SMILES	Brain DHA levels after treatment	Brain levels after treatment with DHA-H sodium salt
CCC=CCC=CCC=CCC=CCC=CCC=CCC(O)C(=O)O (stereo not drawn) [DHA-H, 2-hydroxy-drocosahexaenoic acid]	did not vary significantly	undetectable in the brain
CC/C=C\C/C=C\C/C=C\C/C=C\C/C=C\CCCCC(=O)O [HPA, (6Z,9Z,12Z,15Z,18Z)-heneicosa-6,9,12,15,18-pentaenoic acid]	–	dose-dependent brain accumulation
